Reference: US8008291B2 (Mimetica Pty Ltd, priority 2008, dated 2011)

Target: T1, human MC5R (hMC5R) (Homo sapiens, UniProt P33032)
T1 construct: purchased Perkin Elmer RBXMC5M400UA
Assay: Human MC5R radioligand binding assay (membranes, [125I] NDP-MSH displacement)
Conditions: hMC5R binding; tested as trifluoroacetate or hydrochloride salts, or free bases; read-out: MC5R radioligand IC50
In short: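 Displacement of [125I]NDP-MSH (radioiodinated in house, HPLC-purified) from hMC5R membranes by test compound measured after 1 hr incubation at 37° C.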

T1 sequence (P33032 whole entry): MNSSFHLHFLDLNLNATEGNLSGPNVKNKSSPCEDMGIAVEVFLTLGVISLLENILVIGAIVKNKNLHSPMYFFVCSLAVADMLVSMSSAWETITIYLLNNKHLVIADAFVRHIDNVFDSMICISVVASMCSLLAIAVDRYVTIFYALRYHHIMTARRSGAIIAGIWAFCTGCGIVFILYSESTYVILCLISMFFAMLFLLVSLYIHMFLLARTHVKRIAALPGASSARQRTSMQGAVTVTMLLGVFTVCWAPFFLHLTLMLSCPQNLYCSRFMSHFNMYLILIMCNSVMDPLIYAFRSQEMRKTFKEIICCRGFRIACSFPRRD

| IC50 [µM] | Structure (SMILES) |
| --- | --- |
| < 10 | CC[C@H](CN1CC[C@@H](CNC(=O)c2ccc(Cl)c(Cl)c2)N[C@@H](CCN2C(=O)CC(C)(C)C2=O)C1=O)c1ccccc1 [Compound 492, 3,4-dichloro-N-(((3S,5S)-3-(2-(3,3-dimethyl-2,5-dioxopyrrolidin-1-yl)ethyl)-2-oxo-1-((S)-2-phenylbutyl)-1,4-diazepan-5-yl)methyl)benzamide] |
| < 1 | CC[C@H](CN1CC[C@@H](CNC(=O)c2ccc(Cl)c(Cl)c2)N[C@@H](CCN)C1=O)c1ccccc1 [Compound 464, N-(((3S,5S)-3-(2-aminoethyl)-2-oxo-1-((S)-2-phenylbutyl)-1,4-diazepan-5-yl)methyl)-3,4-dichlorobenzamide] |
| < 0.1 | NCC[C@@H]1N[C@H](CNC(=O)c2ccc3cc(Cl)ccc3c2)CCN(CC(c2ccccc2)c2ccccc2)C1=O [Compound 366, N-(((3S,5S)-3-(2-aminoethyl)-1-(2,2-diphenylethyl)-2-oxo-1,4-diazepan-5-yl)methyl)-6-chloro-2-naphthamide] |
| < 10 | N=C(N)NCCC[C@@H]1N[C@H](CNC(=O)c2ccc3ccccc3c2)CCN(CC2c3ccccc3-c3ccccc32)C1=O [Compound 227, N-(((3S,5S)-1-((9H-fluoren-9-yl)methyl)-3-(3-guanidinopropyl)-2-oxo-1,4-diazepan-5-yl)methyl)-2-naphthamide] |
| < 0.1 | O=C(NC[C@@H]1CCN(CC(c2ccccc2)c2ccccc2)C(=O)[C@H](CCN2CCOCC2)N1)c1ccc2cc(Cl)ccc2c1 [Compound 514, 6-chloro-N-(((3S,5S)-1-(2,2-diphenylethyl)-3-(2-morpholinoethyl)-2-oxo-1,4-diazepan-5-yl)methyl)-2-naphthamide] |
| < 1 | C/C(=C\c1ccccc1)C(=O)NC[C@@H]1CCN(CC(c2ccccc2)c2ccccc2)C(=O)[C@H](CCCNC(=N)N)N1 [Compound 173, (E)-N-(((3S,5S)-1-(2,2-diphenylethyl)-3-(3-guanidinopropyl)-2-oxo-1,4-diazepan-5-yl)methyl)-2-methyl-3-phenylacrylamide] |
| < 0.1 | COc1c(C(=O)NC[C@@H]2CCN(Cc3cc(Cl)cc(Cl)c3)C(=O)[C@H](CCN3CCCCC3)N2)ccc2ccccc12 [Compound 531, N-(((3S,5S)-1-(3,5-dichlorobenzyl)-2-oxo-3-(2-(piperidin-1-yl)ethyl)-1,4-diazepan-5-yl)methyl)-1-methoxy-2-naphthamide] |
| < 1 | CN(C)CC[C@@H]1N[C@H](CNC(=O)c2ccc3ccccc3c2)CCN(CC(c2ccccc2)c2ccccc2)C1=O [Compound 358, N-(((3S,5S)-3-(2-(dimethylamino)ethyl)-1-(2,2-diphenylethyl)-2-oxo-1,4-diazepan-5-yl)methyl)-2-naphthamide] |
| < 0.1 | CCC[C@@H](CN1CC[C@@H](CNC(=O)c2ccc3ccccc3c2)N[C@@H](CCN2CCCCC2)C1=O)c1ccccc1 [Compound 432, N-(((3S,5S)-2-oxo-1-((R)-2-phenylpentyl)-3-(2-(piperidin-1-yl)ethyl)-1,4-diazepan-5-yl)methyl)-2-naphthamide] |
| < 0.1 | O=C(NC[C@@H]1CCN(CC(c2ccccc2)c2ccccc2)C(=O)[C@H](CCN2CCCCC2)N1)c1cc(-c2ccc(Cl)cc2)on1 [Compound 414, 5-(4-chlorophenyl)-N-(((3S,5S)-1-(2,2-diphenylethyl)-2-oxo-3-(2-(piperidin-1-yl)ethyl)-1,4-diazepan-5-yl)methyl)isoxazole-3-carboxamide] |
| < 10 | CC(C)C(CN1CC[C@@H](CNC(=O)c2ccc3ccccc3c2)N[C@@H](CCN)C1=O)c1ccccc1 (stereo partly drawn) [Compound 388, N-(((3S,5S)-3-(2-aminoethyl)-1-(3-methyl-2-phenylbutyl)-2-oxo-1,4-diazepan-5-yl)methyl)-2-naphthamide] |
| < 10 | NCCC[C@@H]1N[C@H](CNC(=O)c2ccc3ccccc3c2)CCN(Cc2cc(C(F)(F)F)cc(C(F)(F)F)c2)C1=O [Compound 340, N-(((3S,5S)-3-(3-aminopropyl)-1-(3,5-bis(trifluoromethyl)benzyl)-2-oxo-1,4-diazepan-5-yl)methyl)-2-naphthamide] |
| < 1 | CCC(CC)CN1CC[C@@H](CNC(=O)c2ccc3cc(Cl)ccc3c2)N[C@@H](CCN)C1=O [Compound 370, N-(((3S,5S)-3-(2-aminoethyl)-1-(2-ethylbutyl)-2-oxo-1,4-diazepan-5-yl)methyl)-6-chloro-2-naphthamide] |
| < 0.01 | O=C(/C=C/c1ccc(F)cc1)NC[C@@H]1CCN(CC(c2ccccc2)c2ccccc2)C(=O)[C@H](CCN2CCCCC2)N1 [Compound 284, (E)-N-(((3S,5S)-1-(2,2-diphenylethyl)-2-oxo-3-(2-(piperidin-1-yl)ethyl)-1,4-diazepan-5-yl)methyl)-3-(4-fluorophenyl)acrylamide] |
| < 0.01 | CC[C@H](CN1CC[C@@H](CNC(=O)c2ccc3cc(Cl)ccc3c2)N[C@@H](CCN2CCCC2)C1=O)c1ccccc1 [Compound 409, 6-chloro-N-(((3S,5S)-2-oxo-1-((S)-2-phenylbutyl)-3-(2-(pyrrolidin-1-yl)ethyl)-1,4-diazepan-5-yl)methyl)-2-naphthamide] |
| < 1 | CC(C)NCC[C@@H]1N[C@H](CNC(=O)c2ccc3ccccc3c2)CCN(CC(c2ccccc2)c2ccccc2)C1=O [Compound 382, N-(((3S,5S)-1-(2,2-diphenylethyl)-3-(2-(isopropylamino)ethyl)-2-oxo-1,4-diazepan-5-yl)methyl)-2-naphthamide] |
| < 0.1 | CC[C@H](CN1CC[C@@H](CNC(=O)c2ccc3cc(Cl)ccc3c2)N[C@@H](CCN2CCCCCC2)C1=O)c1ccccc1 [Compound 493, N-(((3S,5S)-3-(2-(azepan-1-yl)ethyl)-2-oxo-1-((S)-2-phenylbutyl)-1,4-diazepan-5-yl)methyl)-6-chloro-2-naphthamide] |
| < 1 | CCCOC(CN1CC[C@@H](CNC(=O)c2ccc3ccccc3c2)N[C@@H](CCCNC(=N)N)C1=O)c1ccccc1 (stereo partly drawn) [Compound 290, N-(((3S,5S)-3-(3-guanidinopropyl)-2-oxo-1-(2-phenyl-2-propoxyethyl)-1,4-diazepan-5-yl)methyl)-2-naphthamide] |
| < 1 | NCCC[C@@H]1N[C@H](CNC(=O)c2ccc3ccccc3c2)CCN(Cc2ccc(Cl)cc2Cl)C1=O [Compound 319, N-(((3S,5S)-3-(3-aminopropyl)-1-(2,4-dichlorobenzyl)-2-oxo-1,4-diazepan-5-yl)methyl)-2-naphthamide] |
| < 0.01 | CC(C)NCC[C@@H]1N[C@H](CNC(=O)c2ccc3cc(Cl)ccc3c2)CCN(Cc2cc(Cl)cc(Cl)c2)C1=O [Compound 438, 6-chloro-N-(((3S,5S)-1-(3,5-dichlorobenzyl)-3-(2-(isopropylamino)ethyl)-2-oxo-1,4-diazepan-5-yl)methyl)-2-naphthamide] |
| < 10 | C[C@@H](CN1CC[C@@H](CNC(=O)c2ccc3ccccc3c2)N[C@@H](CCN)C1=O)c1ccc(Cl)cc1 [Compound 421, N-(((3S,5S)-3-(2-aminoethyl)-1-((R)-2-(4-chlorophenyl)propyl)-2-oxo-1,4-diazepan-5-yl)methyl)-2-naphthamide] |
| < 1 | N=C(N)NCCC[C@@H]1N[C@H](CNC(=O)c2ccc3ccccc3c2)CCN(Cc2cc(F)cc(F)c2)C1=O [Compound 311, N-(((3S,5S)-1-(3,5-difluorobenzyl)-3-(3-guanidinopropyl)-2-oxo-1,4-diazepan-5-yl)methyl)-2-naphthamide] |
